The text below walks through data of US12070520B2, “Dermal delivery device” (Agile Therapeutics, Inc., priority 2007, dated 2024).

The data set can be described thus: Control of loss of volatile components: amounts in the AI patch after storage (gas chromatography). In kind it is physicochemical. The method, then: A transdermal hormone delivery device was prepared comprising an internal backing layer, an AI layer, and a release liner. […] The device also comprised an overlay comprising a polyurethane spun bonded non-woven backing, which is able to absorb large amounts of the volatile excipients, DMSO and ethyl lactate, an acrylic PSA coated onto the polyurethane foam, and a PIB PSA coated on top of the acrylic PSA. […] The release liner was a Mylar polyester film coated with a fluoropolymer release coating. […] The devices were placed in a 25 C or 40 C oven. After 6 weeks and 12 weeks, devices were removed from the oven and the active section of each device was separated from the overlay. […] (12 weeks exposure to 40 C is intended to simulate 18 months exposure to room temperature (25 C)).

For the compound `C[S+](C)[O-]` [DMSO, dimethyl sulfoxide], the “Amount in the AI patch” value was determined as 9.02 wt % (6 wks, 40 C.); 8.98 wt % (12 wks, 40 C.); 9.08 wt % (12 wks, room temp).
In the case of `CCOC(=O)C(C)O` (stereo not drawn) [Ethyl Lactate, ethyl lactate], the “Amount in the AI patch” value (6 wks, 40 C.) is 1.66 wt %; the “Amount in the AI patch” value (12 wks, 40 C.) came to 1.57 wt %; the “Amount in the AI patch” value (12 wks, room temp) came to 1.79 wt %.
Taken in the same sequence, the figures for `CCCCCCCCCCCCOC(=O)C(C)O` (stereo not drawn) [Lauryl Lactate, lauryl lactate] were 9.02 wt %, 9.20 wt % and 9.10 wt %.
